Results taken from BindingDB's records for doi:10.1021/jm801065q (Novartis Institutes For Biomedical Research, 2008).

Legend:
[1] = Activity at CXCR4 in rat IR983F cells assessed as inhibition of CXCL12-induced cell migration
[2] = Activity at CXCR4 in human Jurkat T cells assessed as inhibition of CXCL12-induced cell migration

IC50 [1]: 29 nM | IC50 [2]: 58 nM
SMILES: C1=C(CS/C(=N\C2CCCCC2)NC2CCCCC2)N2CCN=C2S1 [1,3-dicyclohexyl-2-((5,6-dihydroimidazo[2,1-b]thiazol-3-yl)methyl)isothiourea]
